From patent US10544137B2, “PI3K inhibitor, and pharmaceutically acceptable salt, polycrystalline form, and application thereof” (SHANGHAI HAIYAN PHARMACEUTICAL TECHNOLOGY CO., LTD., priority 2016, dated 2020)
In brackets after ≈: the same amount, converted by molar mass.

How the values were obtained:
Assay type in all cases: physicochemical
[1] = Hygroscopicity experiment (DVS); conditions: for hygroscopicity (in words): DVS, 25° C.; for moisture absorbed: humidity increased to 80% RH at 25° C.
From the text: The Dynamic Vapor Sorption (DVS) curve was acquired on the DVS Intrinsic of Surface Measurement Systems.
The DVS test results of the crystal form A and the crystal form B-1 were shown in FIG. 26 and FIG. 27, respectively.
The DVS test results of the crystal form C, crystal form D-2, crystal form E, and crystal form F were shown in FIG. 28, FIG. 29, FIG. 30, and FIG. 31.

[2] = Solubility experiment in 0.1M HCl, buffers and water; conditions: for Solubility (mg/mL) 0.1M HCl / Solubility (mg/mL) pH 4.5 / Solubility (mg/mL) pH 6.8 / Solubility (mg/mL) H2O: ambient temperature; for Solubility (mg/mL) pH 4.5: pH 4.5 buffer; for Solubility (mg/mL) pH 6.8: pH 6.8 buffer; for solubility in water compared with the free base (in words) / Solubility (mg/mL) H2O: water
Description: The solubilities of the following four kinds of salt and free base sample in 0.1M HCl, pH 4.5 buffer, pH 6.8 buffer, and water were tested at ambient temperature. In the test, the calibration curves of free base and four kinds of salt were plotted. 3 mg of solid samples of free base and four kinds of salt were weighed, respectively, and then 1 ml of the solvent was added, centrifuged after 30 min ultrasound. The supernatant was taken, and injected through the membrane, and the solubility was tested.

[3] = Solid phase stability experiment (sealed at 60° C., HPLC purity); conditions: for solid phase stability (in words): 60° C., at 7 days and 21 days
Description: 5 mg of samples were weighed and sealed at 60° C., respectively. Another set of samples were sealed and stored at −20° C. as a control at the same time. All samples were characterized by HPLC at 7 days and 21 days to detect changes in purity.

| hygroscopicity (in words) [1] | moisture absorbed [1] | Solubility (mg/mL) 0.1M HCl [2] | Solubility (mg/mL) pH 4.5 [2] | Solubility (mg/mL) pH 6.8 [2] | solubility in water compared with the free base (in words) [2] | Solubility (mg/mL) H2O [2] | solid phase stability (in words) [3] | Purity (%) ([3]; 60° C.-0 day) | Total impurities (%) ([3]; 60° C.-0 day) | Purity (%) ([3]; 60° C.-7 days, sealed) | Total impurities (%) ([3]; 60° C.-7 days, sealed) | Purity (%) ([3]; 60° C.-21 days, sealed) | Total impurities (%) ([3]; 60° C.-21 days, sealed) | SMILES |
| --- | --- | --- | --- | --- | --- | --- | --- | --- | --- | --- | --- | --- | --- | --- |
| almost no hygroscopicity | 0.26% |  |  |  |  |  |  |  |  |  |  |  |  | CS(=O)(=O)C1(c2cc(-c3cnc(N)cc3Cl)nc(N3CCOCC3)n2)CC1 [crystal form F] |
| almost no hygroscopicity | 0.12% |  |  |  |  |  |  |  |  |  |  |  |  | CS(=O)(=O)C1(c2cc(-c3cnc(N)cc3Cl)nc(N3CCOCC3)n2)CC1 [crystal form E] |

Second part, the compound before the results:

| SMILES | hygroscopicity (in words) [1] | moisture absorbed [1] | Solubility (mg/mL) 0.1M HCl [2] | Solubility (mg/mL) pH 4.5 [2] | Solubility (mg/mL) pH 6.8 [2] | solubility in water compared with the free base (in words) [2] | Solubility (mg/mL) H2O [2] | solid phase stability (in words) [3] | Purity (%) ([3]; 60° C.-0 day) | Total impurities (%) ([3]; 60° C.-0 day) | Purity (%) ([3]; 60° C.-7 days, sealed) | Total impurities (%) ([3]; 60° C.-7 days, sealed) | Purity (%) ([3]; 60° C.-21 days, sealed) | Total impurities (%) ([3]; 60° C.-21 days, sealed) |
| --- | --- | --- | --- | --- | --- | --- | --- | --- | --- | --- | --- | --- | --- | --- |
| CS(=O)(=O)C1(c2cc(-c3cnc(N)cc3Cl)nc(N3CCOCC3)n2)CC1 [crystal form A] | slightly hygroscopic |  | >2.744 mg/mL | 0.020 mg/mL | 0.012 mg/mL | obviously improved | 1.063 mg/mL (≈ 2590 µM) | good stability | 99.73% | 0.27% | 99.78% | 0.22% | 99.75% | 0.25% |
| CS(=O)(=O)C1(c2cc(-c3cnc(N)cc3Cl)nc(N3CCOCC3)n2)CC1 [crystal form C] | almost no hygroscopicity | 0.17% | 1.875 mg/mL (≈ 4570 µM) | 0.027 mg/mL | 0.010 mg/mL | obviously improved | 0.174 mg/mL (≈ 424 µM) | good stability | 99.73% | 0.27% | 99.74% | 0.26% | 99.75% | 0.25% |
| CS(=O)(=O)C1(c2cc(-c3cnc(N)cc3Cl)nc(N3CCOCC3)n2)CC1 [crystal form D-2] | almost no hygroscopicity | 0.14% | 1.195 mg/mL (≈ 2920 µM) | 0.031 mg/mL | 0.013 mg/mL | slightly improved | 0.023 mg/mL (≈ 56.1 µM) | good stability | 98.37% | 1.63% | 98.22% | 1.78% | 98.25% | 1.75% |
| CS(=O)(=O)C1(c2cc(-c3cnc(N)cc3Cl)nc(N3CCOCC3)n2)CC1 [crystal form B-1] | slightly hygroscopic |  | >2.488 mg/mL | 0.026 mg/mL | 0.012 mg/mL | obviously improved | 0.946 mg/mL (≈ 2310 µM) | good stability | 99.74% | 0.26% | 99.50% | 0.50% | 99.74% | 0.26% |
